The source of these data is patent US10787436B2, “Inhibitors of cyclin-dependent kinase 7 (CDK7)” (Dana-Farber Cancer Institute, Inc., priority 2012, dated 2020).

pIC50: −log10 of the molar value. Bounds are passed on as bounds.

The target of one experiment is CDK7 (Homo sapiens (Human), UniProt P50613). As to the kind of experiment: In vitro inhibitory activity against CDK7 (Table 1). Format: biochemical. As to the method:
In vitro kinase assays with immunoprecipitated proteins (or recombinant CAK complexes) were performed as follows. Kinase reactions were performed in 25 μL of final volume of reaction buffer (50 mM Hepes, pH 7.5, 150 mM NaCl, 10 mM MgCl2, 5% glycerol, 25 μM ATP, and 10 μCi of [γ-32P]ATP). Each reaction contained 1 μg of RNAP II. Incubation was at 30° C. for 30-45 min. Reactions were terminated by addition of 5 μL of 5×SDS-PAGE sample buffer and incubated at 95° C. for 5 min. Reactions were analyzed by SDS-PAGE, and the dried gel was exposed to film or PhosphorImager plate.

A further experiment relates to Jurkat. The experiment is described as follows: Jurkat (proliferation, CellTiter-Glo). Particulars: Homo sapiens, Jurkat; read-out: Calculated IC50, Jurkat. The experiment is classed as cell-based.
Another experiment has as its target IRAK1 (Homo sapiens (Human), UniProt P51617). As to the kind of experiment: Life Technologies Adapta kinase assay, IRAK1. Format: biochemical. The following applies: superscript b (footnote not given; tested at 100 nM and 1 μM).
For another experiment, the target named is MLK3 (Homo sapiens (Human), UniProt Q16584). The experiment is described as follows: Life Technologies LanthaScreen Eu kinase assay, MLK3. The experiment is classed as binding. The following applies: superscript b (footnote not given; tested at 100 nM and 1 μM). In general terms: In TR-FRET formats the signal depends on donor and acceptor labels being close together.
MLK3, sequence (Q16584 whole entry): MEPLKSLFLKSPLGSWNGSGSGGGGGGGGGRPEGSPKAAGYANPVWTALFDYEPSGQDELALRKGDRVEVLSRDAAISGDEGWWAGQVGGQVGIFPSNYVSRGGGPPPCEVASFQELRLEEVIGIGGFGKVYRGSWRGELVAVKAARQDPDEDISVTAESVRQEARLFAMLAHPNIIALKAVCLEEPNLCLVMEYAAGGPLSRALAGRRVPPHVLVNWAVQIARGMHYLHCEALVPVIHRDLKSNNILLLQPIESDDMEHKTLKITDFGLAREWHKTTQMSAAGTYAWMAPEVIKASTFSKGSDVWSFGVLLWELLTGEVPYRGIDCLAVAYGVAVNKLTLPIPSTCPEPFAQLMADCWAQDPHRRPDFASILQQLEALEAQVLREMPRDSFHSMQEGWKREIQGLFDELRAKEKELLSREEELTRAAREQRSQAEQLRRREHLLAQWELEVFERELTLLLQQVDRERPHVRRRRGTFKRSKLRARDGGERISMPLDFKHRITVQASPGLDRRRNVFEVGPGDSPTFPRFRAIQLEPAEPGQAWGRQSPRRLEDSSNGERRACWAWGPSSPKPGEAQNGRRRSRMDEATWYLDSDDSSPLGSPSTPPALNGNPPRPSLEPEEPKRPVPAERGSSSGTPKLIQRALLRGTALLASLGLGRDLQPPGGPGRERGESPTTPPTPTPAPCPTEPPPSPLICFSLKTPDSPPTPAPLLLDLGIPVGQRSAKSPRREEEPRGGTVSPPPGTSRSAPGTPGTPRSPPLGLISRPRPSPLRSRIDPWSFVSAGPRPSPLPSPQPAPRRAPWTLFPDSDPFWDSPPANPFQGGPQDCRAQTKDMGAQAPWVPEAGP

The next experiment has as its system MCF10A. The experiment is described as follows: Proliferation assay, CellTiter-Glo, 72 hour. Format: cell-based. The following applies: Homo sapiens, MCF-10A, non-tumorigenic breast epithelial cell line, read-out: Inhibition of proliferation, MCF10A. A general note: ATP-based viability assays read luminescence as a measure of living cells.
The test system of another experiment is MCF7. As to the kind of experiment: Proliferation assay, CellTiter-Glo, 72 hour. Format: cell-based. The following applies: Homo sapiens, MCF7, breast cancer cell line, read-out: Inhibition of proliferation, MCF7.
Another experiment concerns MDA-MB231. As to the kind of experiment: Proliferation assay, CellTiter-Glo, 72 hour. The following applies: Homo sapiens, MDA-MB-231, breast cancer cell line, read-out: Inhibition of proliferation, MDA-MB231. Format: cell-based.
The subject of the next experiment is Hs863T. As to the kind of experiment: Proliferation assay, CellTiter-Glo, 72 hour. The experiment is classed as cell-based. The following applies: Ewing's sarcoma cell line, read-out: Inhibition of proliferation, Hs863T.
The next experiment relates to Hs822T. As to the kind of experiment: Proliferation assay, CellTiter-Glo, 72 hour. The experiment is classed as cell-based. The following applies: Ewing's sarcoma cell line, read-out: Inhibition of proliferation, Hs822T.
In the next experiment the test system is RS4-11. The experiment is described as follows: Proliferation assay, CellTiter-Glo, 72 hour. Format: cell-based. Particulars: Homo sapiens, RS4-11, blood cancer cell line, read-out: Inhibition of proliferation, RS4-11.
A further experiment relates to MV4-11. The experiment is described as follows: Proliferation assay, CellTiter-Glo, 72 hour. The following applies: Homo sapiens, MV4-11, blood cancer cell line, read-out: Inhibition of proliferation, MV4-11. Format: cell-based.
A further experiment concerns RD-ES. The experiment is described as follows: Proliferation assay, CellTiter-Glo, 72 hour. Format: cell-based. Particulars: RD-ES, Ewing's sarcoma cell line, read-out: Inhibition of proliferation, RD-ES.
In another experiment the test system is HL60. As to the kind of experiment: Proliferation assay, CellTiter-Glo, 72 hour. Format: cell-based. Particulars: Homo sapiens, HL-60, blood cancer cell line, read-out: Inhibition of proliferation, HL60.
The test system of a further experiment is SAOS. The experiment is described as follows: Proliferation assay, CellTiter-Glo, 72 hour. The experiment is classed as cell-based. Particulars: osteosarcoma cell line, read-out: Inhibition of proliferation, SAOS.
The subject of a further experiment is hTERT-HME1. The experiment is described as follows: Proliferation assay, CellTiter-Glo, 72 hour. The following applies: hTERT-HME1, immortalized normal mammary epithelial cell line, read-out: Inhibition of proliferation, hTERT-HME1. Format: cell-based.
In another experiment the test system is 143B. As to the kind of experiment: Proliferation assay, CellTiter-Glo, 72 hour. Particulars: Homo sapiens, 143B, osteosarcoma cell line, read-out: Inhibition of proliferation, 143B. Format: cell-based.
The next experiment concerns SKBR3. As to the kind of experiment: Proliferation assay, CellTiter-Glo, 72 hour. The experiment is classed as cell-based. The following applies: Homo sapiens, SK-BR-3, breast cancer cell line, read-out: Inhibition of proliferation, SKBR3.
Another experiment deals with MNNG-HOS Cl#5. The experiment is described as follows: Proliferation assay, CellTiter-Glo, 72 hour. Format: cell-based. The following applies: osteosarcoma cell line, read-out: Inhibition of proliferation, MNNG-HOS Cl#5.
The subject of a further experiment is T47D. As to the kind of experiment: Proliferation assay, CellTiter-Glo, 72 hour. Particulars: Homo sapiens, T47D, breast cancer cell line, read-out: Inhibition of proliferation, T47D. Format: cell-based.
The subject of the next experiment is A673. The experiment is described as follows: Proliferation assay, CellTiter-Glo, 72 hour. Format: cell-based. The following applies: Homo sapiens, A673, Ewing's sarcoma cell line, read-out: Inhibition of proliferation, A673.
For another experiment, the system named is SK-ES. As to the kind of experiment: Proliferation assay, CellTiter-Glo, 72 hour. The experiment is classed as cell-based. The following applies: Ewing's sarcoma cell line, read-out: Inhibition of proliferation, SK-ES.
For another experiment, the system named is THP-1. As to the kind of experiment: Proliferation assay, CellTiter-Glo, 72 hour. The following applies: Homo sapiens, THP-1, blood cancer cell line, read-out: Inhibition of proliferation, THP-1. Format: cell-based.

CDK7, sequence (P50613 whole entry, looked up): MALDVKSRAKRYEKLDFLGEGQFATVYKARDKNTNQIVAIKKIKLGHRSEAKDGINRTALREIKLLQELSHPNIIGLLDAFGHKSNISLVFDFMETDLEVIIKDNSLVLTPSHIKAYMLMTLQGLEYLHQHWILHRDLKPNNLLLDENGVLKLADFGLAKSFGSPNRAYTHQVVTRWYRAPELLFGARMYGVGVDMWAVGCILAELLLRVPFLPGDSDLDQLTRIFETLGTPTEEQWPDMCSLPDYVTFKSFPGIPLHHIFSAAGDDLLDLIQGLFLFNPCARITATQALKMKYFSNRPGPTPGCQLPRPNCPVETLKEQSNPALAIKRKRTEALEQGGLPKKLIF
CDK7, sequence (P51946 whole entry partner, looked up): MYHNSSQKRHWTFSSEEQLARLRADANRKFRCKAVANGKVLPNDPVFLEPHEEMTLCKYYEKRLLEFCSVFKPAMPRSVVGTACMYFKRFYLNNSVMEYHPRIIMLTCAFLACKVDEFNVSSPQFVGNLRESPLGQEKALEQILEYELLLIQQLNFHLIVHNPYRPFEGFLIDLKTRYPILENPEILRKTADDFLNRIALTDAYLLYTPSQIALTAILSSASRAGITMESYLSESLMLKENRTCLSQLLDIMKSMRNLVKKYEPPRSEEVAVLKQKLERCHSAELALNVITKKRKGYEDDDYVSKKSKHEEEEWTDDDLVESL
CDK7, sequence (P51948 whole entry partner, looked up): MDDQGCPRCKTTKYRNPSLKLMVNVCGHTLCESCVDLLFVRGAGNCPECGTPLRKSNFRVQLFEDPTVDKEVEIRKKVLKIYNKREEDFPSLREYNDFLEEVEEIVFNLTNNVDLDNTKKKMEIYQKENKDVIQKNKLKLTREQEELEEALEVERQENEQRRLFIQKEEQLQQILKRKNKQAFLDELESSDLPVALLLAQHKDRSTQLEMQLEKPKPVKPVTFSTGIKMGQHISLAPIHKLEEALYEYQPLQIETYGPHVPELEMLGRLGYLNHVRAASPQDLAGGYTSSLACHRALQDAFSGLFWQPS
IRAK1, sequence (P51617 whole entry): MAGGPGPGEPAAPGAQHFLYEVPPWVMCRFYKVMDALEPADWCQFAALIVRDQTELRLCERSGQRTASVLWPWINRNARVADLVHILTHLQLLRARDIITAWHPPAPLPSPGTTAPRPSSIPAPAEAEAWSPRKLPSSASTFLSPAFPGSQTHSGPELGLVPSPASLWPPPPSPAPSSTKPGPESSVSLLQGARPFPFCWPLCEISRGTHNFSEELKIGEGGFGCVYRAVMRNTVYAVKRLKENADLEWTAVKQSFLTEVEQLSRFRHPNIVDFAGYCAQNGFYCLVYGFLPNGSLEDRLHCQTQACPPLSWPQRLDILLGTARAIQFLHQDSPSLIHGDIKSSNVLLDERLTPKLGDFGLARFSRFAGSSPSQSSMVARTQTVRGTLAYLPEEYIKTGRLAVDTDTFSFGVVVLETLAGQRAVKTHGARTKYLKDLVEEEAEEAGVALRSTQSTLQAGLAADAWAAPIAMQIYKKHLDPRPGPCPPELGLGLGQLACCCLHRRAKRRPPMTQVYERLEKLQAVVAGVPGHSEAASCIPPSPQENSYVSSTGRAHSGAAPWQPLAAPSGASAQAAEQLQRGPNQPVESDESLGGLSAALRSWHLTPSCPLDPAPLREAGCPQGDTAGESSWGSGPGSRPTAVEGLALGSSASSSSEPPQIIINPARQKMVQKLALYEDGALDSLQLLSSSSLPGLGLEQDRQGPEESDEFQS

For `CN(C)C/C=C/C(=O)Nc1cccc(C(=O)Nc2cccc(Nc3ncc(Cl)c(-c4c[nH]c5ccccc45)n3)c2)c1` [Formula I-18], the pIC50 on CDK7 is 7.86.

`Cc1cnc(Nc2cccc(NC(=O)c3ccc(NC(=O)/C=C/CN(C)C)cc3)c2)nc1-c1c[nH]c2ccccc12` [Formula I-19] gave a pIC50 on CDK7 of 7.80. The same measure, in the same setting: the same measure for `CCc1cnc(Nc2cccc(NC(=O)c3ccc(NC(=O)/C=C/CN(C)C)cc3)c2)nc1-c1c[nH]c2ccccc12` [Formula I-21]: 7.64; for `Cc1ccc(NC(=O)c2ccc(NC(=O)/C=C/CN(C)C)cc2)cc1Nc1ncc(Cl)c(-c2c[nH]c3ccccc23)n1` [Formula I-22]: 7.49. The same measure, in the same setting: the same measure for `C=CC(=O)Nc1ccc(C(=O)Nc2cccc(Nc3ncc(Cl)c(-c4c[nH]c5ccccc45)n3)c2)cc1` [Formula I-24]: 7.40. On the same count and under the same terms, in the case of `CN(C)C/C=C/C(=O)Nc1ccc(C(=O)Nc2ccc(Cl)c(Nc3ncc(Cl)c(-c4c[nH]c5ccccc45)n3)c2)cc1` [Formula I-25] it was 7.06. For `CN(C)C/C=C/C(=O)Nc1ccc(C(=O)Nc2cccc(Nc3ncc(C4CC4)c(-c4c[nH]c5ccccc45)n3)c2)cc1` [Formula I-26], the pIC50 against CDK7 is 6.74. On the same count and under the same terms, the same measure for `CN(C)C/C=C/C(=O)Nc1ccc(C(=O)Nc2cccc(Nc3ncc(Cl)c(-n4cnc5ccccc54)n3)c2)cc1` [Formula I-27]: 6.70. Take `CN(C)C/C=C/C(=O)Nc1ccc(C(=O)Nc2cccc(Nc3ncc(Cl)c(-c4cn(C)c5ccccc45)n3)c2)cc1` [Formula I-28]: the pIC50 on CDK7 was 6.62. At CDK7, `CN(C)C/C=C/C(=O)Nc1ccc(C(=O)Nc2cccc(Nc3ncc(Cl)c(-c4cnc5[nH]ccc5c4)n3)c2)cc1` [Formula I-29] showed a pIC50 of 6.54.

`CN(C)C/C=C/C(=O)Nc1ccc(C(=O)Nc2cccc(Nc3ncc(Cl)c(-c4cccc5[nH]ccc45)n3)c2)cc1` [Formula I-30] had a pIC50 against CDK7 of 6.46. Still for that read-out and setting: the same measure for `CN(C)C/C=C/C(=O)Nc1ccc(C(=O)Nc2cccc(Nc3ncc(Cl)c(-c4cccc5[nH]ccc45)n3)c2)cc1` [Formula I-31]: 6.38. The same measure, in the same setting: in the case of `CN(C)C/C=C/C(=O)Nc1ccc(C(=O)Nc2cccc(Nc3ncc(Cl)c(-c4ccc5cc[nH]c5c4)n3)c2)cc1` [Formula I-32] it was 5.93.

Molecule `CN(C)C/C=C/C(=O)Nc1ccc(C(=O)Nc2cccc(Nc3nc(-c4c[nH]c5ccccc45)c4ccccc4n3)c2)cc1` [Formula I-33] showed a pIC50 at CDK7 of 5.85. On the same count and under the same terms, in the case of `CN(C)C/C=C/C(=O)Nc1ccc(C(=O)Nc2cccc(Nc3ncc(Cl)c(-c4cc5ccccc5[nH]4)n3)c2)cc1` [Formula I-34] it was 5.32. On the same count and under the same terms, in the case of `CCSC(=O)CCNc1ccc(C(=O)Nc2cccc(Nc3ncc(Cl)c(-c4c[nH]c5ccccc45)n3)c2)cc1` [Formula I-37] it was 6.25; in that of `CN(C)C/C=C/C(=O)Nc1ccc(C(=O)Nc2cccc(Nc3ncc(Cl)c(-c4c(-c5ccccc5)nn5ccccc45)n3)c2)cc1` [Formula I-38], 5.52.

In the case of `Cc1nc(Nc2cccc(NC(=O)c3ccc(NC(=O)/C=C/CN(C)C)cc3)c2)nc(-c2c[nH]c3ccccc23)c1C` [Formula I-39], the pIC50 on CDK7 was 5.87. As for `Cc1cccc2[nH]cc(-c3ccnc(Nc4cccc(NC(=O)c5ccc(NC(=O)/C=C/CN(C)C)cc5)c4)n3)c12` [Formula I-40], the pIC50 against CDK7 is 5.46. On the same count and under the same terms, the same measure for `Cc1cnc(Nc2cccc(NC(=O)c3ccc(NC(=O)/C=C/CN(C)C)cc3)c2)nc1-c1c[nH]c2cccc(C)c12` [Formula I-41]: 6.09.

`CN(C)C/C=C/C(=O)Nc1ccc(C(=O)Nc2cccc(Nc3ncc(C(F)(F)F)c(-c4c[nH]c5ccccc45)n3)c2)cc1` [Formula I-42]: the pIC50 at CDK7 was 7.45. The same measure, in the same setting: the same measure for `CN(C)C/C=C/C(=O)NCc1ccc(C(=O)Nc2cccc(Nc3ncc(Cl)c(-c4c[nH]c5ccccc45)n3)c2)cc1` [Formula I-43]: 7.44; for `CN(C)C/C=C/C(=O)Nc1ccc(C(=O)Nc2cccc(Nc3nccc(-c4c[nH]c5ccccc45)n3)c2)cc1` [Formula I-44]: 6.41; for `Cc1nc(C)c(-c2nc(Nc3cccc(NC(=O)c4ccc(NC(=O)/C=C/CN(C)C)cc4)c3)ncc2Cl)s1` [Formula I-50]: 7.03. On to `CN(C)C/C=C/C(=O)Nc1ccc(S(=O)(=O)Nc2cccc(Nc3ncc(Cl)c(-c4c[nH]c5ccccc45)n3)c2)cc1` [Formula I-52, (E)-N-(4-(N-(3-(5-chloro-4-(1H-indol-3-yl)pyrimidin-2-ylamino)phenyl)sulfamoyl)phenyl)-4-(dimethylamino)but-2-enamide], for which the pIC50 in the experiment with Jurkat was 6.00 to 7.00. Consider `CN(C)C/C=C/C(=O)Nc1ccc(S(=O)(=O)Nc2cccc(Nc3ncc(C#N)c(-c4c[nH]c5ccccc45)n3)c2)cc1` [Formula I-55, (E)-N-(4-(N-(3-(5-cyano-4-(1H-indol-3-yl)pyrimidin-2-ylamino)phenyl)sulfamoyl)phenyl)-4-(dimethylamino)but-2-enamide], for which the pIC50 with Jurkat was 6.00 to 7.00. In the case of `Cc1ccc(Nc2ncc(C#N)c(-c3c[nH]c4ccccc34)n2)cc1NC(=O)c1ccc(NC(=O)/C=C/CN(C)C)cc1` [Formula I-56, (E)-N-(5-(5-cyano-4-(1H-indol-3-yl)pyrimidin-2-ylamino)-2-methylphenyl)-4-(4-(dimethylamino)but-2-enamido)benzamide], the “Percent inhibition, IRAK1^b” value on IRAK1 is listed as “C (less than 50% inhibition)”. In addition, the “Percent inhibition, MLK3^b” value on MLK3 is reported as “C (less than 50% inhibition)”. Moreover, the pIC50 with Jurkat is more than 7.00. As to `CN(C)C/C=C/C(=O)Nc1ccc(C(=O)N(C)c2cccc(Nc3ncc(Cl)c(-c4c[nH]c5ccccc45)n3)c2)cc1` [Formula I-57, (E)-N-(3-(5-chloro-4-(1H-indol-3-yl)pyrimidin-2-ylamino)phenyl)-4-(4-(dimethylamino)but-2-enamido)-N-methylbenzamide], the “Percent inhibition, IRAK1^b” value at IRAK1 was “C (less than 50% inhibition)”. For the same molecule, on MLK3, the “Percent inhibition, MLK3^b” value is given as “C (less than 50% inhibition)”. In the experiment on Jurkat, the pIC50 was not above 6.00. On to `CC(C)[C@]12O[C@H]1[C@@H]1O[C@]13[C@]1(O[C@H]1C[C@H]1C4=C(CC[C@@]13C)C(=O)OC4)[C@@H]2O` [Triptolide, triptolide, reference compound], for which the pIC50 with MCF10A is more than 6.30; in the experiment with MCF7, more than 6.30; in the experiment on MDA-MB231 it was more than 6.30; in the experiment with Hs863T, less than 5.30; in the experiment on Hs822T it was 5.30 to 6.30; in the experiment with RS4-11 it was more than 6.30. Besides, the pIC50 with MV4-11, in the experiment on RD-ES, in the experiment on HL60, in the experiment with SAOS, in the experiment with hTERT-HME1 and in the experiment on 143B was more than 6.30 in each case. Besides, the pIC50 was more than 6.30 with SKBR3; more than 6.30 in the experiment on MNNG-HOS Cl#5; less than 5.30 in the experiment with T47D; more than 6.30 in the experiment with A673; more than 6.30 in the experiment with SK-ES; more than 6.30 in the experiment on THP-1.
